Consider 21 molecules from PubChem BioAssay AID256 (DTP/NCI, 2004).

In the assay the test system is CD2F1 mice, L1210 leukemia ip, survival T/C. Nature of the assay: NCI In Vivo Anticancer Drug Screen. Data for tumor model L1210 Leukemia (intraperitoneal) in CD2F1 (CDF1) mice. As to conditions: higher = longer survival. The gist of the method: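 Tumor-bearing mice (transplanted tumor) were split into treated and vehicle control groups, and the measured endpoint of each treated group was divided by that of its vehicle controls.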

Where [1] appears, read: endpoint: mean survival time, dose: 50.0 mg/kg/injection, schedule: Q04DX002 (ip), vehicle: saline with Tween-80.
[2] abbreviates: endpoint: mean survival time, dose: 100.0 mg/kg/injection, schedule: Q04DX002 (ip), vehicle: saline with Tween-80.
Setting [3] is: endpoint: mean survival time, dose: 200.0 mg/kg/injection, schedule: Q04DX002 (ip), vehicle: saline with Tween-80.
[4] abbreviates: endpoint: mean survival time, dose: 50.0 mg/kg/injection, schedule: Q01DX009 (ip), vehicle: Klucel (hydroxypropylcellulose) (HPC).
The mark [5] stands for this setting: endpoint: mean survival time, dose: 200.0 mg/kg/injection, schedule: Q01DX009 (ip), vehicle: Klucel (hydroxypropylcellulose) (HPC).
[6] abbreviates: endpoint: mean survival time, dose: 100.0 mg/kg/injection, schedule: Q04DX003 (ip), vehicle: saline with Tween-80.
The mark [7] stands for this setting: endpoint: mean survival time, dose: 200.0 mg/kg/injection, schedule: Q04DX003 (ip), vehicle: saline with Tween-80.
[8] abbreviates: endpoint: mean survival time, dose: 400.0 mg/kg/injection, schedule: Q04DX003 (ip), vehicle: saline with Tween-80.
Where [9] appears, read: endpoint: mean survival time, dose: 100.0 mg/kg/injection, schedule: Q01DX001 (ip), vehicle: saline with Tween-80.
Where [10] appears, read: endpoint: mean survival time, dose: 200.0 mg/kg/injection, schedule: Q01DX001 (ip), vehicle: saline with Tween-80.
Where [11] appears, read: endpoint: mean survival time, dose: 25.0 mg/kg/injection, schedule: Q01DX009 (ip), vehicle: saline.
The mark [12] stands for this setting: endpoint: mean survival time, dose: 50.0 mg/kg/injection, schedule: Q01DX009 (ip), vehicle: saline.
The mark [13] stands for this setting: endpoint: mean survival time, dose: 100.0 mg/kg/injection, schedule: Q01DX009 (ip), vehicle: saline.
Where [14] appears, read: endpoint: mean survival time, dose: 200.0 mg/kg/injection, schedule: Q01DX009 (ip), vehicle: saline.
[15] abbreviates: endpoint: mean survival time, dose: 100.0 mg/kg/injection, schedule: Q01DX009 (ip), vehicle: saline with Tween-80.
[16] abbreviates: endpoint: mean survival time, dose: 200.0 mg/kg/injection, schedule: Q01DX009 (ip), vehicle: saline with Tween-80.
[17] abbreviates: endpoint: mean survival time, dose: 50.0 mg/kg/injection, schedule: Q01DX009 (ip), vehicle: saline with Tween-80.

Several values for one entry are separate records, joined by “and”; a condition that tells them apart may be missing. Equal values may be shown once. Toxic doses and inconclusive results are not listed. Residues, ends and D or L forms follow the SMILES beside them.

For `CC(=O)OC(Cc1ccc(Cl)cc1)c1ccc(Cl)cc1` (configuration not stated), the T/C was 96 % of control under setting [1]; 96 % of control under setting [2]; 90 % of control under setting [3]; 90 % of control (endpoint: mean survival time, dose: 400.0 mg/kg/injection, schedule: Q04DX002 (ip), vehicle: saline with Tween-80).

Take `Nc1nc(N)c2cc(CNc3ccc(C(=O)NC(CC(=O)O)CC(=O)O)cc3)ccc2n1`: the T/C was 160 % of control (endpoint: mean survival time, dose: 25.0 mg/kg/injection, schedule: Q01DX009 (ip), vehicle: Klucel (hydroxypropylcellulose) (HPC)); 162 % of control and 206 % of control under setting [4]; 114 % of control and 103 % of control under setting [5]; 96 % of control and 98 % of control (endpoint: mean survival time, dose: 400.0 mg/kg/injection, schedule: Q01DX009 (ip), vehicle: Klucel (hydroxypropylcellulose) (HPC)).

Take `Cc1cc(=O)[nH]c(=O)[nH]1`: the T/C is 95 % of control (endpoint: mean survival time, dose: 50.0 mg/kg/injection, schedule: Q01DX001 (ip), vehicle: Klucel (hydroxypropylcellulose) (HPC)); 98 % of control under setting [4]; 104 % of control (endpoint: mean survival time, dose: 100.0 mg/kg/injection, schedule: Q01DX001 (ip), vehicle: Klucel (hydroxypropylcellulose) (HPC)); 98 % of control (endpoint: mean survival time, dose: 100.0 mg/kg/injection, schedule: Q01DX009 (ip), vehicle: Klucel (hydroxypropylcellulose) (HPC)); 98 % of control (endpoint: mean survival time, dose: 200.0 mg/kg/injection, schedule: Q01DX001 (ip), vehicle: Klucel (hydroxypropylcellulose) (HPC)); 102 % of control under setting [5].

In the case of `CCN(CC)C(=O)Nc1cc2c3c(c1)CCCN3CCC2`, the T/C was 98 % of control under setting [6], 96 % of control under setting [7] and 87 % of control under setting [8].

Regarding `C/C(=N\n1cc(-c2ccccc2)nc1N)c1ccccc1`, the T/C was 91 % of control (endpoint: mean survival time, dose: 75.0 mg/kg/injection, schedule: Q01DX001 (ip), vehicle: saline); 97 % of control (endpoint: mean survival time, dose: 150.0 mg/kg/injection, schedule: Q01DX001 (ip), vehicle: saline); 93 % of control (endpoint: mean survival time, dose: 300.0 mg/kg/injection, schedule: Q01DX001 (ip), vehicle: saline).

For `COc1ccccc1N=Nc1c(O)n(-c2ccccc2OC)c(=S)n(-c2ccccc2OC)c1=O`, the T/C under setting [1] is 98 % of control; the T/C under setting [9] is 93 % of control; the T/C under setting [2] is 94 % of control; the T/C under setting [10] was 94 % of control; the T/C under setting [3] was 102 % of control.

`CC(C)O.CC(C)O.CC(C)O.[La]`: the T/C was 97 % of control (endpoint: mean survival time, dose: 100.0 mg/kg/injection, schedule: Q04DX003 (ip), vehicle: saline); 87 % of control (endpoint: mean survival time, dose: 200.0 mg/kg/injection, schedule: Q04DX003 (ip), vehicle: saline); 89 % of control (endpoint: mean survival time, dose: 400.0 mg/kg/injection, schedule: Q04DX003 (ip), vehicle: saline).

Take `NC(N)=NCCCC(N)C(=O)NC(CCC(=O)O)C(=O)O` (stereo not drawn) (H-Arg-Glu-OH; configuration not given here): the T/C by setting is: under setting [11], 91 % of control; under setting [12], 94 % of control; under setting [13], 89 % of control; under setting [14], 89 % of control; (endpoint: mean survival time, dose: 400.0 mg/kg/injection, schedule: Q01DX009 (ip), vehicle: saline) 93 % of control.

As to `CO[C@@H]1[C@H](O)CC[C@]2(CO2)[C@H]1[C@@]1(C)O[C@@H]1CC=C(C)C`, the T/C was 101 % of control and 103 % of control (endpoint: median survival time, dose: 1.56 mg/kg/injection, schedule: Q01DX009 (ip), vehicle: saline with Tween-80); 93 % of control and 102 % of control (endpoint: median survival time, dose: 3.12 mg/kg/injection, schedule: Q01DX009 (ip), vehicle: saline with Tween-80); 97 % of control and 105 % of control (endpoint: median survival time, dose: 6.25 mg/kg/injection, schedule: Q01DX009 (ip), vehicle: saline with Tween-80); 101 % of control and 102 % of control (endpoint: median survival time, dose: 12.5 mg/kg/injection, schedule: Q01DX009 (ip), vehicle: saline with Tween-80); 101 % of control and 102 % of control (endpoint: median survival time, dose: 25.0 mg/kg/injection, schedule: Q01DX009 (ip), vehicle: saline with Tween-80); 97 % of control and 103 % of control (endpoint: median survival time, dose: 50.0 mg/kg/injection, schedule: Q01DX009 (ip), vehicle: saline with Tween-80).

Take `Cc1ccc(NC(=O)c2ccccc2)c(C)c1`: the T/C reads like this: under setting [15], 90 % of control; under setting [6], 92 % of control; under setting [16], 86 % of control; under setting [7], 92 % of control; under setting [8], 92 % of control.

As for `Cc1ccc([PH+](c2ccc(C)cc2)c2ccc(C)cc2)cc1.Cc1ccc([PH+](c2ccc(C)cc2)c2ccc(C)cc2)cc1.[Cl][Hg][Cl]`, the T/C was 103 % of control under setting [12], 95 % of control under setting [13] and 91 % of control under setting [14].

For `O=C1C=C(c2ccccc2)C(O)(c2ccccc2)C1` (configuration not stated), the T/C by setting is: under setting [17], 89 % of control; under setting [15], 104 % of control; under setting [16], 89 % of control.

As to `CCCCCCCCCCCCCCCCOc1ccc(-c2cc(Cl)c3cc(S(=O)(=O)F)ccc3n2)cc1S(=O)(=O)F`, the T/C is 97 % of control under setting [15], 98 % of control under setting [16], 87 % of control under setting [7] and 95 % of control under setting [8].

Take `CCCCCCC(=O)/C=C/c1cccc(Cl)c1`: the T/C is, setting by setting: (endpoint: mean survival time, dose: 100.0 mg/kg/injection, schedule: Q04DX003 (ip), vehicle: Klucel (hydroxypropylcellulose) (HPC)) 104 % of control; (endpoint: mean survival time, dose: 200.0 mg/kg/injection, schedule: Q04DX003 (ip), vehicle: Klucel (hydroxypropylcellulose) (HPC)) 102 % of control; (endpoint: mean survival time, dose: 400.0 mg/kg/injection, schedule: Q04DX003 (ip), vehicle: Klucel (hydroxypropylcellulose) (HPC)) 91 % of control.

On to `Cc1c(N=NN(C)C)cc[n+]([O-])c1C`, for which the T/C is 121 % of control (endpoint: mean survival time, dose: 11.0 mg/kg/injection, schedule: Q01DX009 (ip), vehicle: water); 157 % of control (endpoint: mean survival time, dose: 25.0 mg/kg/injection, schedule: Q01DX009 (ip), vehicle: water); 159 % of control (endpoint: mean survival time, dose: 37.5 mg/kg/injection, schedule: Q01DX009 (ip), vehicle: water).

For the molecule `Nc1ccc(NC(=O)COc2cccc(Cl)c2)cc1`, the T/C is 90 % of control under setting [9]; 90 % of control under setting [10]; 95 % of control (endpoint: mean survival time, dose: 400.0 mg/kg/injection, schedule: Q01DX001 (ip), vehicle: saline with Tween-80).

As for `COc1ccc(C2C(C(C)=O)=C(C)NC(C)=C2C(C)=O)cc1`, the T/C runs as follows: under setting [6], 88 % of control; under setting [7], 87 % of control.

In the case of `BrC1CCCCCCC1Br` (configuration not stated), the T/C under setting [11] is 96 % of control, the T/C under setting [12] is 94 % of control and the T/C under setting [13] is 93 % of control.

Regarding `NC1(C(=O)O)CCCC1.[Pb]`, the T/C (endpoint: mean survival time, dose: 100.0 mg/kg/injection, schedule: Q01DX001 (ip), vehicle: saline) was 90 % of control.

With `C=C1N(C)c2ccccc2C1(C)C`, the T/C (endpoint: mean survival time, dose: 0.78 mg/kg/injection, schedule: Q01DX009 (ip), vehicle: saline with Tween-80) is 104 % of control; the T/C (endpoint: mean survival time, dose: 1.56 mg/kg/injection, schedule: Q01DX009 (ip), vehicle: saline with Tween-80) is 101 % of control; the T/C (endpoint: mean survival time, dose: 3.12 mg/kg/injection, schedule: Q01DX009 (ip), vehicle: saline with Tween-80) is 97 % of control; the T/C (endpoint: mean survival time, dose: 6.25 mg/kg/injection, schedule: Q01DX009 (ip), vehicle: saline with Tween-80) is 98 % of control; the T/C (endpoint: mean survival time, dose: 12.5 mg/kg/injection, schedule: Q01DX009 (ip), vehicle: saline with Tween-80) was 92 % of control and 100 % of control; the T/C (endpoint: mean survival time, dose: 25.0 mg/kg/injection, schedule: Q01DX009 (ip), vehicle: saline with Tween-80) was 94 % of control. For the same molecule, the T/C under setting [17] is 94 % of control.

As to `COC1C(C)OC(OC2CC(C)(O)Cc3cc4c(c(O)c32)C(=O)c2c(O)cc3c(c2C4=O)OC2OC3(C)C(O)C(N(C)C)C2O)C(OC)C1(C)OC` (configuration not stated), the T/C was 115 % of control (endpoint: mean survival time, dose: 0.6 mg/kg/injection, schedule: Q01DX009 (ip), vehicle: other); 101 % of control (endpoint: mean survival time, dose: 1.25 mg/kg/injection, schedule: Q04DX003 (ip), vehicle: other); 109 % of control (endpoint: mean survival time, dose: 2.5 mg/kg/injection, schedule: Q04DX003 (ip), vehicle: other); 112 % of control (endpoint: mean survival time, dose: 5.0 mg/kg/injection, schedule: Q04DX003 (ip), vehicle: other); 109 % of control (endpoint: mean survival time, dose: 10.0 mg/kg/injection, schedule: Q04DX003 (ip), vehicle: other); 102 % of control (endpoint: mean survival time, dose: 20.0 mg/kg/injection, schedule: Q04DX003 (ip), vehicle: other).
